The source of these data is patent publication US20170129903A1, “COMPOUNDS COMPRISING 1,1a,2,5a-TETRAHYDROSPIRO[INDOLE-3,2a-PYRROLE]-2,5a-DIONE SYSTEM AS INHIBITORS P53-MDM2 PROTEIN-PROTEIN INTERACTION” (ADAMED SP. Z O.O., priority 2014, published 2017).

Assay [1] has as its system SJSA-1 osteosarcoma cell line. As to the kind of experiment: MTT cell viability assay. It counts as cell-based. The conditions noted are these: Homo sapiens, SJSA-1, 72 h, 72 h incubation, average of 2-5 experiments. The method in brief:
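Cells exposed to serial compound dilutions for 72 h, then MTT (0.5 mg/ml final) added for 4 h; formazan dissolved in DMSO. IC50 from dose-response curves, 2-5 independent repeats.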

Assay [2] addresses T1, p53-Mdm2 interaction (N-terminal domain of Mdm2 protein, amino acids 1-111) (Homo sapiens, UniProt Q00987).
T1 construct: N-terminal domain of Mdm2 protein (amino acids 1-111)
Put plainly: Fluorescence polarization (FP) binding assay of p53-Mdm2 interaction. The conditions noted are these: for Ki: FP assay, 130 nM Mdm2, FAM-labelled p53 peptide, Ki transformed from IC50 using Kenakin equation. The method in brief: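 N-terminal Mdm2 (aa 1-111) at 130 nM preincubated 15 min with compound (5% DMSO) in PBS, 0.1% CHAPS, 5 mM DTT, then […] FAM-labelled p53 peptide added. Polarization read after 90 min at room temperature (ex 470/em 520 nm). IC50 converted to Ki by Kenakin equation.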

T1 sequence (Q00987 1-111): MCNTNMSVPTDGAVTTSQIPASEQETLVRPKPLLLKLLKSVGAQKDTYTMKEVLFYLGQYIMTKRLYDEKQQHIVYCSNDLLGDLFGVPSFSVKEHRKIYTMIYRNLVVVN

The compound `COc1ccc(N)cc1-n1cc2c(c1C(C)C)C1(C(=O)Nc3cc(Cl)ccc31)N(c1cc(Cl)ccc1C)C2=O` (stereo not shown) [Compound 96, 5′-(5-amino-2-methoxyphenyl)-6-chloro-2′-(5-chloro-2-methylphenyl)-6′-(propan-2-yl)-1,2,3′,5′-tetrahydro-2′H-spiro [indole-3,1′-pyrrolo[3,4-c]pyrrole]-2,3′-dione] showed an IC50 in assay [1] of 0.3 µM. Moreover, in assay [2], the affinity corresponds to a Ki of 4 nM.

In assay [1], `COc1ccc(NC(C)=O)cc1-n1cc2c(c1C(C)C)C1(C(=O)Nc3cc(Cl)ccc31)N(c1cc(Cl)ccc1C)C2=O` (stereo not shown) [Compound 97, N-{3-[6-chloro-2′-(5-chloro-2-methylphenyl)-2,3′-dioxo-6′-(propan-2-yl)-1,2,3′,5′-tetrahydro-2′H-spiro[indole-3,1′-pyrrolo[3,4-c]pyrrole]-5′-yl]-4-methoxyphenyl}acetamide] came in with a half-maximal inhibitory concentration (IC50) of 0.3 µM. In addition, in assay [2], the Ki worked out at 3.4 nM.

In turn, `CCN(CC)S(=O)(=O)c1ccc(OC)c(-n2cc3c(c2C(C)C)C2(C(=O)Nc4cc(Cl)ccc42)N(c2cc(Cl)ccc2C)C3=O)c1` (stereo not shown) [Compound 98, 3-[6-chloro-2′-(5-chloro-2-methylphenyl)-2,3′-dioxo-6′-(propan-2-yl)-1,2,3′,5′-tetrahydro-2′H-spiro[indole-3,1′-pyrrolo [3,4-c]pyrrole]-5′-yl]-N,N-diethyl-4-methoxybenzene-1-sulfonamide] returned an IC50 in assay [1] of 0.38 µM. The same compound showed an inhibition constant Ki in assay [2] of 4.6 nM.

For the compound `COc1ccccc1-n1cc2c(c1C(C)C)C1(C(=O)Nc3cc(Cl)ccc31)N(c1cc(Cl)ccc1C(N)=O)C2=O` (stereo not shown) [Compound 99, 4-chloro-2-[6-chloro-5′-(2-methoxy-phenyl)-2,3′-dioxo-6′-(propan-2-yl)-1,2,3′,5′-tetrahydro-2′H-spiro[indole-3,1′-pyrrolo[3,4-c]pyrrole]-2′-yl]benzamide], half-maximal inhibition in assay [1] (IC50) required 0.65 µM. This compound also gave a Ki in assay [2] of 6.7 nM.

`COc1ccc(C(=O)NCCO)cc1-n1cc2c(c1C(C)C)C1(C(=O)Nc3cc(Cl)ccc31)N(c1cc(Cl)ccc1C)C2=O` (stereo not shown) [Compound 100, 3-[6-chloro-2′-(5-chloro-2-methylphenyl)-2,3′-dioxo-6′-(propan-2-yl)-1,2,3′,5′-tetrahydro-2′H-spiro[indole-3,1′-pyrrolo [3,4-c]pyrrole]-5′-yl]-N-(2-hydroxyethyl)-4-methoxybenzamide] came in with an IC50 in assay [1] of 1.21 µM. Also, in assay [2], the inhibition constant (Ki) is 3.5 nM.

On to `COc1cc2[nH]c(=O)[nH]c2cc1-n1cc2c(c1C(C)C)C1(C(=O)Nc3cc(Cl)ccc31)N(c1cc(Cl)ccc1C)C2=O` (stereo not shown) [Compound 101, 6-chloro-2′-(5-chloro-2-methylphenyl)-5′-(6-methoxy-2-oxo-2,3-dihydro-1H-1,3-benzodiazol-5-yl)-6′-(propan-2-yl)-1,2,3′,5′-tetrahydro-2′H-spiro[indole-3,1′-pyrrolo[3,4-c]pyrrole]-2,3′-dione], for which, in assay [1], the IC50 is 1.77 µM. In addition, in assay [2], the inhibition constant Ki worked out at 4.7 nM.

Consider `COc1ccccc1-n1cc2c(c1C(C)C)[C@@]1(C(=O)Nc3cc(Cl)ccc31)N(c1cc(Cl)ccc1NS(C)(=O)=O)C2=O` [Compound 102, N-{4-chloro-2-[(3S)-6-chloro-5′-(2-methoxy-phenyl)-2,3′-dioxo-6′-(propan-2-yl)-1,2,3′,5′-tetrahydro-2′H-spiro[indole-3,1′-pyrrolo[3,4-c]pyrrole]-2′-yl]phenyl} methanesulfonamide], for which, in assay [1], the IC50 came to 0.66 µM. In assay [2], the Ki was determined as 2.9 nM.

`CO[C@H]1CNCC[C@H]1n1cc2c(c1C(C)C)[C@@]1(C(=O)Nc3cc(Cl)ccc31)N(c1cc(Cl)ccc1C)C2=O` [Compound 103, (3S)-6-chloro-2′-(5-chloro-2-methyl-phenyl)-5′-[(3S,4R)-3-methoxy-piperidin-4-yl]-6′-(propan-2-yl)-1,2,3′,5′-tetrahydro-2′H-spiro[indole-3,1′-pyrrolo [3,4-c]pyrrole]-2,3′-dione] had an IC50 in assay [1] of 2.2 µM. Besides, affinity in assay [2] was put at a Ki of 4.5 nM.

The compound `COc1ccc(-n2cc3c(c2C(C)C)C2(C(=O)Nc4cc(Cl)ccc42)N(c2cc(Cl)cnc2C)C3=O)c(OC)c1` (stereo not shown) [Compound 104, 6-chloro-2′-(5-chloro-2-methylpyridin-3-yl)-5′-(2,4-dimethoxyphenyl)-6′-(propan-2-yl)-1,2,3′,5′-tetrahydro-2′H-spiro[indole-3,1′-pyrrolo[3,4-c]pyrrole]-2,3′-dione] gave an IC50 in assay [1] of 0.16 µM. This compound also came in with a Ki in assay [2] of 3.1 nM.

With `COc1ccccc1-n1cc2c(c1C(C)C)C1(C(=O)Nc3cc(Cl)ccc31)N(c1cc(Cl)ccc1C(=O)O)C2=O` (stereo not shown) [Compound 105, 4-chloro-2-[6-chloro-5′-(2-methoxyphenyl)-2,3′-dioxo-6′-(propan-2-yl)-1,2,3′,5′-tetrahydro-2′H-spiro[indole-3,1′-pyrrolo[3,4-c]pyrrole]-2′-yl]benzoic acid], in assay [1], the IC50 was 9.98 µM. Further, the Ki in assay [2] stood at 4.3 nM.

Take `CCOC(=O)c1ccc(Cl)cc1N1C(=O)c2cn(-c3ccccc3OC)c(C(C)C)c2C12C(=O)Nc1cc(Cl)ccc12` (stereo not shown) [Compound 106, ethyl 4-chloro-2-[6-chloro-5′-(2-methoxyphenyl)-2,3′-dioxo-6′-(propan-2-yl)-1,2,3′,5′-tetrahydro-2′H-spiro[indole-3,1′-pyrrolo[3,4-c]pyrrole]-2′-yl]benzoate]: the IC50 in assay [1] was 0.78 µM. Besides, the Ki in assay [2] was 4.2 nM.

In assay [1], `COc1ccc(-n2cc3c(c2C(C)C)[C@@]2(C(=O)Nc4cc(Cl)ccc42)N(c2cc(Cl)ccc2C)C3=O)c(OC)c1` [Compound 107, (3S)-6-chloro-2′-(5-chloro-2-methylphenyl)-5′-(2,4-dimethoxyphenyl)-6′-(propan-2-yl)-1,2,3′,5′-tetrahydro-2′H-spiro[indole-3,1′-pyrrolo[3,4-c]pyrrole]-2,3′-dione] yielded an IC50 of 0.06 µM. Moreover, in assay [2], the inhibitory constant (Ki) came to 1.9 nM. Also, in assay [2] (enantiopure S isomers vs racemic Compounds 71, 93 and 72, respectively), the “times more potent than the corresponding S/R (racemic) mixture” value is reported as “about 2 times”.

In the case of `COc1ccc(NC(C)=O)cc1-n1cc2c(c1C(C)C)[C@@]1(C(=O)Nc3cc(Cl)ccc31)N(c1cc(Cl)ccc1C)C2=O` [Compound 108, N-{3-[(3S)-6-chloro-2′-(5-chloro-2-methylphenyl)-2,3′-dioxo-6′-(propan-2-yl)-1,2,3′,5′-tetrahydro-2′H-spiro[indole-3,1′-pyrrolo[3,4-c]pyrrole]-5′-yl]-4-methoxyphenyl}acetamide], the IC50 in assay [1] stood at 0.35 µM. This compound came in with a Ki in assay [2] of 1.6 nM.

As for `COc1ccc(N)cc1-n1cc2c(c1C(C)C)[C@@]1(C(=O)Nc3cc(Cl)ccc31)N(c1cc(Cl)ccc1C)C2=O` [Compound 109, (3S)-5′-(5-amino-2-methoxyphenyl)-6-chloro-2′-(5-chloro-2-methylphenyl)-6′-(propan-2-yl)-1,2,3′,5′-tetrahydro-2′H-spiro[indole-3,1′-pyrrolo[3,4-c]pyrrole]-2,3′-dione], the IC50 in assay [1] was 0.07 µM. The same compound registered an inhibition constant (Ki) in assay [2] of 1.3 nM.

Regarding `COc1ccc(C(N)=O)cc1-n1cc2c(c1C(C)C)[C@@]1(C(=O)Nc3cc(Cl)ccc31)N(c1cc(Cl)ccc1C)C2=O` [Compound 110, 3-[(3S)-6-chloro-2′-(5-chloro-2-methylphenyl)-2,3′-dioxo-6′-(propan-2-yl)-1,2,3′,5′-tetrahydro-2′H-spiro[indole-3,1′-pyrrolo[3,4-c]pyrrole]-5′-yl]-4-methoxybenzamide], 0.35 µM corresponded to half-maximal inhibition in assay [1] (IC50). In assay [2], this compound showed an inhibition constant Ki of 1.7 nM.
